Each structure is given as a SMILES string.

One experiment concerns Phaeobacter sp. MED193. In words: Growth on substrate as the sole C source, wild type. Type of experiment: cell-based. The following applies: defined artificial seawater medium, 5 mM substrate. On the procedure: (§1) Phaeobacter sp. MED193 and its mutant strains were routinely maintained on 1.5% (w/v) Difco marine broth 2216 agar with antibiotics as appropriate. To test the growth of Phaeobacter sp. MED193 on G1P/G3P, cells were first cultivated in 5 mL marine broth medium overnight at 30 °C with shaking at 150 rpm. A 1% (v/v) inoculum was then transferred to defined artificial seawater medium supplemented with 50 µM phosphate ([6]). After 24 h growth, 12.5 mL cultures were collected by centrifugation and inoculated into 100 mL artificial seawater medium. Subsequently, either G1P or G3P (purchased from Sigma-Aldrich, St. Louis, USA) was added to a final concentration of 5 mM as the sole C source. Cells (40 mL) were harvested after 48 h and used for proteomics.

For experiment [1], the system named is Phaeobacter sp. MED193 ∆ugpB∆gpxB double mutant. In words: Growth on substrate as the sole carbon source, ∆ugpB∆gpxB double mutant. Type of experiment: cell-based. To be noted: 5 mM substrate. How it is done: as §1
The gpxBugpB double mutant was generated using a conjugation protocol as described previously ([35]). First, two homologous regions of an upstream and a downstream fragment flanking the gpxB gene were cloned into suicide plasmid pK18mobsacB, together with a spectinomycin (Spec) resistance cassette which was inserted in between the upstream and downstream fragments. The resulting plasmid was then mobilized into Phaeobacter sp. MED193 using E. coli S17.1 lambda pir and transconjugants selected on marine broth MB agar containing Spec (200 µg mL^−1). […] The same protocol was repeated to generate the gpxBugpB double mutant in the gpxB single mutant background, except that a Gentamycin (Gm) resistant cassette was inserted in between the upstream and downstream fragments of ugpB into pK18mobsacB. All primers, plasmids, and bacterial strains used are listed in SI Appendix, Table S6.

The target in experiment [2] is Phaeobacter sp. MED193 GpxB (MED193_19449) (Roseobacter sp. MED193, UniProt A3X5C8). In words: Microscale thermophoresis (MST) binding affinity assay, purified recombinant GpxB. To be noted: 22 °C, 20 mM HEPES pH 7.4, 100 mM NaCl, recombinant GpxB of Phaeobacter sp. MED193. On the procedure:
(§2) The binding affinity of the purified proteins to G1P and other structurally related chemicals was measured using a Monolith NT.115 (NanoTemper Technologies, Munich, Germany). Proteins (160 nM) were labeled in assay buffer (PBS containing 0.05% (v/v) Tween-20) using the Protein Labelling Kit RED-Tris-NTA (NanoTemper Technologies). For binding assays, the buffer was replaced by 20 mM HEPES pH 7.4, 100 mM NaCl, 0.05% (v/v) Tween-20. Each chemical was prepared by serial dilution in the same assay buffer and mixed with the same volume of labeled protein (at a final concentration of 80 nM). The mixture was then loaded onto Monolith™ NT.115 Series capillaries (NanoTemper Technologies, Germany) and thermophoresis was measured at 22 °C using 60% excitation power and medium MST power. Data were analyzed using MO. Affinity Analysis v2.3 software (NanoTemper Technologies).
(§3) The full-length codon optimized GpxB (MED193_19449) of Phaeobacter sp. MED193 (WP_009811375.1), and four GpxB homologs (Marinobacter sp. DSM11874, MBB6025290.1; S. pseudonitzschiae DSM26824, WP_037914517.1; Sulfitobacter sp. EE-36, WP_005852758.1; S. geojensis sp. EhN01, WP_064222091.1) were chemically synthesized by Beijing Tsingke Biotech Co., Ltd. (China), and subcloned into pET-22b (Novagen, America) with a C-terminal His-tag. An N-terminal signal peptide truncated [residues 1−22 predicted by SignalP 5.0 Server ([36])] […]
(MST reads how a fluorescent partner responds to local heating, with and without ligand.)

Experiment [3] addresses Phaeobacter sp. MED193 UgpB (MED193_07903) (Phaeobacter sp. MED193 (Roseobacter sp. MED193), UniProt Z9VP90JAR2). In words: MST binding affinity assay, purified recombinant UgpB. The following applies: 22 °C, 20 mM HEPES pH 7.4, 100 mM NaCl, recombinant UgpB of Phaeobacter sp. MED193. On the procedure: as §2, §3
The target in experiment [4] is GpxB^DSM11874 (GpxB homolog from Marinobacter sp. DSM11874) (Marinobacter sp. DSM 11874, UniProt Z9YUV0DEE1). In words: MST binding affinity assay, purified GpxB^DSM11874. The following applies: 22 °C, GpxB^DSM11874 of Marinobacter sp. DSM11874. On the procedure: as §2, §3
GpxB^DSM11874 (GpxB homolog from Marinobacter sp. DSM11874), sequence (Z9YUV0DEE1 21-315 limits assumed): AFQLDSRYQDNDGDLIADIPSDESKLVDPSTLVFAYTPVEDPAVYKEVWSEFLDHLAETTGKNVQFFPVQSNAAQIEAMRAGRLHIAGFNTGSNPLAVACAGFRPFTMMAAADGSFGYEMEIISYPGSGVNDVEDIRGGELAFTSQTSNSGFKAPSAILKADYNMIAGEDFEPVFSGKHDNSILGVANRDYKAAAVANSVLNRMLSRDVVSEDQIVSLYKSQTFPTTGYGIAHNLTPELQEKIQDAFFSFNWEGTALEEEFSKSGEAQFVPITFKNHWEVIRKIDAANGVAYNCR
The target of experiment [5] is GpxB from Sulfitobacter pseudonitzschiae DSM26824. In words: MST binding affinity assay, purified GpxB from Sulfitobacter pseudonitzschiae DSM26824. The following applies: GpxB of Sulfitobacter pseudonitzschiae DSM26824. How it is done: as §2, §3
In experiment [6] the target is GpxB from Sulfitobacter sp. EE-36. In words: MST binding affinity assay, purified GpxB from Sulfitobacter sp. EE-36. The following applies: GpxB of Sulfitobacter sp. EE-36. How it is done:
as §2, §3

For experiment [7], the target named is GpxB from Sulfitobacter geojensis EhN01. In words: MST binding affinity assay, purified GpxB from Sulfitobacter geojensis EhN01. To be noted: GpxB of Sulfitobacter geojensis EhN01. On the procedure:
as §2, §3

The test system of experiment [8] is GpxB^DSM11874 alanine mutants (Tyr138, His199, Thr247, Arg223). In words: MST binding affinity assay of site-directed alanine mutants of GpxB^DSM11874. Also noted: species or system Marinobacter sp. DSM11874. The following applies: alanine mutants of Tyr138, His199, Thr247, Arg223 versus wild-type GpxB^DSM11874. How it is done: as §2, §3

Phaeobacter sp. MED193 GpxB (MED193_19449), sequence (A3X5C8 1-326 limits assumed): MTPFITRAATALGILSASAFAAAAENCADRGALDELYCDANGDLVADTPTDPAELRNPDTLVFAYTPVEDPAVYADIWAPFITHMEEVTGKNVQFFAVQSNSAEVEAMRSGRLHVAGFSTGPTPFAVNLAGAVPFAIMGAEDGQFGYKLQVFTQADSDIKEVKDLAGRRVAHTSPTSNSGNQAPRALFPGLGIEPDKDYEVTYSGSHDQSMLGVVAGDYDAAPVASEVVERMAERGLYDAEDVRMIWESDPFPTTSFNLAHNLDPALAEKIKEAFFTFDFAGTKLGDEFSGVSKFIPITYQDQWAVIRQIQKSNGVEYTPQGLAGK
Phaeobacter sp. MED193 UgpB (MED193_07903), sequence (Z9VP90JAR2 43-453 limits assumed): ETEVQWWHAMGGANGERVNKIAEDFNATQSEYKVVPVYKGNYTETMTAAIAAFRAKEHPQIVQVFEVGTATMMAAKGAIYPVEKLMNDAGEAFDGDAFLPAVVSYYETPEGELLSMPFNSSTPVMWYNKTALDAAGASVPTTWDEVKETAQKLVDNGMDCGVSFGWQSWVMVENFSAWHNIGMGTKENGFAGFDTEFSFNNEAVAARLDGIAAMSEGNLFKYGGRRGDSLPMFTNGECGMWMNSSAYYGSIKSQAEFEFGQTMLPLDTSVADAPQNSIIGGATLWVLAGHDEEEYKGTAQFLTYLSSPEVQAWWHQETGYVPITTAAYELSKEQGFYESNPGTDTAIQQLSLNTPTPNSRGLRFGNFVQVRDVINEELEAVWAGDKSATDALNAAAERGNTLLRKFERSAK

Regarding `OCC(O)CO` [glycerol], in the experiment with Phaeobacter sp. MED193, the “growth on the substance as the sole C source” value (shortened to “growth … as the sole C source”) is listed as “grows”. The “growth on the substance as the sole carbon source” value (“growth … as the sole carbon source” for short) in experiment [1] is “unaffected”.
Regarding `O=P(O)(O)OC[C@@H](O)CO` [G1P, sn-glycerol-1-phosphate], the equilibrium dissociation constant (Kd) in [2] was 2480 ± 140 nM; in experiment [3], 2360 ± 350 nM; in [4] it was 1720 ± 280 nM. Further, the binding affinity entry in [5], in experiment [6] and in [7] was “low-µM” each time. For the same compound, the “reduction in binding affinity of alanine mutants” value in [8] is listed as 10- to 100 fold. The “growth … as the sole C source” value in the experiment on Phaeobacter sp. MED193 is “grows”. For the same compound, the “growth … as the sole carbon source” value in experiment [1] is listed as “unable to grow”.
Consider `O=P(O)(O)OC[C@H](O)CO` [G3P, sn-glycerol-3-phosphate], for which the Kd came out at 1020 ± 140 nM in experiment [2], 800 ± 260 nM in experiment [3] and 1060 ± 150 nM in [4]. The binding affinity result in experiment [5], in experiment [6] and in experiment [7] was “low-µM” each time. Also, the “growth … as the sole C source” value in the experiment on Phaeobacter sp. MED193 is “grows”. Besides, the “growth … as the sole carbon source” value in experiment [1] was “unable to grow”.

As a reminder, the Kd is the concentration at which binding is half-saturated.

For the origin of these results see paper PMC12718374, “Structural basis and evolutionary pathways of glycerol-1-phosphate transport in marine bacteria” (Proceedings of the National Academy of Sciences of the …, 2025).
